Test results from the supplement of paper PMC6045584.
± gives the standard deviation of the averaged measurements.

Assays:
[1] = compound: T1, CC1(C)CC(=O)c2c(C(F)(F)F)nn(-c3ccc(C(N)=O)c(N[C@H]4CC[C@H](OC(=O)CN)CC4)c3)c2C1 [SNX-5422]; assay: surviving fraction relative to DMSO-only wells; higher = less growth inhibition; settings: exposure time: 5 days
Method in brief: (§1)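 Surviving fraction was calculated by normalising CellTiter-Glo luminescence to the median of DMSO-only wells. Tumour cell lines in log phase were seeded in 384-well plates at 250–500 cells per well, and 24 hours later were exposed continuously for five days to inhibitors at 0.5, 1, 5, 10, 50, 100, 500 and 1000 nM.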

[2] = compound: Nc1nc2[nH]cnc2c(=S)[nH]1 [TIOGUANINE]; assay: as above; settings: exposure time: 5 days
Method in brief: as §1

[3] = compound: T1, SNX-5422; assay: area under dose-response curve of surviving fraction (unscaled, Aref=0) (surviving fraction x log10(nM)); higher = more resistant; settings: exposure time: 5 days; dose range 0.5-1000 nM
Method in brief: (§2)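 Tumour cell lines in 384-well plates were exposed for five days to eight inhibitor concentrations from 0.5 to 1000 nM. Viability was read by CellTiter-Glo luminescence, normalised to DMSO-only wells, in three screens per line. Dose-response survival curves were fitted to surviving fractions by 3-parameter logistic regression in the drc R package. Area under the curve is the unscaled activity area (Aref = 0) over log10 dose.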

[4] = compound: CCCCCCCCCCCCCCCC(=O)Nc1ccn([C@@H]2O[C@H](CO)[C@@H](O)[C@@H]2C#N)c(=O)n1 [SAPACITABINE]; assay: as above; settings: exposure time: 5 days; dose range 0.5-1000 nM
Method in brief: as §2

[5] = compound: CN(C)C/C=C/C(=O)Nc1cc2c(Nc3ccc(F)c(Cl)c3)ncnc2cc1O[C@H]1CCOC1 [AFATINIB]; assay: as above; settings: exposure time: 5 days; dose range 0.5-1000 nM
Method in brief: as §2

[6] = compound: Cn1cc(C2=Nc3cc(NC(=O)C(N)C4CCCCC4)cc4c3C2=CNNC4=O)cn1; assay: as above; settings: exposure time: 5 days; dose range 0.5-1000 nM
Method in brief: as §2

Test System	surviving fraction ([1]; 0.5 nM)	surviving fraction ([1]; 1 nM)	surviving fraction ([1]; 5 nM)	surviving fraction ([1]; 10 nM)	surviving fraction ([1]; 50 nM)	surviving fraction ([1]; 100 nM)	surviving fraction ([1]; 500 nM)	surviving fraction ([1]; 1000 nM)	surviving fraction ([2]; 0.5 nM)	surviving fraction ([2]; 1 nM)	surviving fraction ([2]; 5 nM)	surviving fraction ([2]; 10 nM)	surviving fraction ([2]; 50 nM)	surviving fraction ([2]; 100 nM)	surviving fraction ([2]; 500 nM)	surviving fraction ([2]; 1000 nM)	area under dose-response curve [3]	area under dose-response curve [4]	area under dose-response curve [5]	area under dose-response curve [6]
CAL72 BONE	1.033 ± 0.0045	1.06 ± 0.022	1.077 ± 0.01	1.08 ± 0.046	0.208 ± 0.027	0.294 ± 0.038	0.0867 ± 0.014	0.0977 ± 0.0057	1.08 ± 0.029	1.07 ± 0.027	1.09 ± 0.073	1.1 ± 0.056	1.14 ± 0.034	1.124 ± 0.0085	1.13 ± 0.029	1.13 ± 0.043	2.02	2.07	3.5	2.58
MFM223 BREAST	1.16 ± 0.032	1.1 ± 0.029	1.06 ± 0.025	1.08 ± 0.074	0.254 ± 0.014	0.152 ± 0.016	0.111 ± 0.0051	0.116 ± 0.0013	1.01 ± 0.13	0.997 ± 0.062	1.09 ± 0.037	1.041 ± 0.009	1.13 ± 0.031	1.13 ± 0.045	1.05 ± 0.074	1 ± 0.068	2.02	2.85	3.2	2.38
22RV1 PROSTATE	1.06 ± 0.047	1.11 ± 0.056	1.06 ± 0.037	0.941 ± 0.056	0.169 ± 0.018	0.13 ± 0.022	0.0763 ± 0.014	0.0823 ± 0.0091	0.97 ± 0.042	0.971 ± 0.042	0.99 ± 0.049	0.999 ± 0.0061	1.06 ± 0.067	0.99 ± 0.039	0.988 ± 0.079	0.94 ± 0.042	1.82	2.46	3.06	2.97
MDAMB157 BREAST	0.999 ± 0.11	0.958 ± 0.067	0.941 ± 0.059	1.11 ± 0.043	0.575 ± 0.12	0.266 ± 0.06	0.258 ± 0.043	0.191 ± 0.01	0.867 ± 0.072	0.857 ± 0.052	0.958 ± 0.013	0.921 ± 0.071	0.986 ± 0.078	0.961 ± 0.085	0.88 ± 0.055	0.89 ± 0.039	2.28	2.24	3.17	2.88
HCT15 LARGE INTESTINE	1.05 ± 0.018	1.03 ± 0.029	1.06 ± 0.051	1.09 ± 0.022	0.77 ± 0.12	0.303 ± 0.03	0.0797 ± 0.0015	0.074 ± 0.009	0.968 ± 0.012	0.913 ± 0.05	0.979 ± 0.016	0.967 ± 0.051	1.02 ± 0.067	1.06 ± 0.023	1.04 ± 0.015	0.995 ± 0.012	2.24	1.34	3.26	3.4
SUM149 BREAST	0.982 ± 0.046	0.986 ± 0.14	1.09 ± 0.1	0.951 ± 0.097	0.0727 ± 0.0076	0.082 ± 0.0095	0.0233 ± 0.0021	0.0287 ± 0.0015	1.06 ± 0.068	0.998 ± 0.076	1.11 ± 0.068	1.05 ± 0.058	0.984 ± 0.029	1.06 ± 0.082	1.01 ± 0.067	1.05 ± 0.058	1.7	1.31	1.98	1.97
HCC1954 BREAST	0.8303 ± 0.0039	0.93 ± 0.028	0.873 ± 0.042	0.762 ± 0.06	0.151 ± 0.0095	0.109 ± 0.0067	0.0587 ± 0.0011	0.062 ± 0.0021	0.867 ± 0.18	0.986 ± 0.24	1.08 ± 0.075	0.96 ± 0.1	0.997 ± 0.18	0.911 ± 0.05	0.969 ± 0.054	0.871 ± 0.051	1.62	1.48	1.86	2.06
G292 BONE	1.01 ± 0.014	0.952 ± 0.055	1.02 ± 0.033	0.994 ± 0.034	0.366 ± 0.017	0.287 ± 0.028	0.081 ± 0.0089	0.0853 ± 0.012	0.964 ± 0.034	0.998 ± 0.045	1 ± 0.021	0.984 ± 0.036	1.01 ± 0.023	1.02 ± 0.016	0.948 ± 0.011	0.949 ± 0.035	2.01	2.32	3.06	2.19
SG43 HEADNECK	0.971 ± 0.16	1.26 ± 0.33	0.911 ± 0.033	0.865 ± 0.13	0.205 ± 0.085	0.033 ± 0.004	0.0307 ± 0.019	0.037 ± 0.003	1 ± 0.073	0.986 ± 0.23	0.684 ± 0.14	0.988 ± 0.083	0.778 ± 0.18	0.895 ± 0.15	0.91 ± 0.1	1.11 ± 0.13	1.7	3.5	1.3	3.31
SNU475 LIVER	1.024 ± 0.0066	1.05 ± 0.045	1.06 ± 0.016	1.01 ± 0.068	0.565 ± 0.033	0.358 ± 0.011	0.245 ± 0.014	0.234 ± 0.012	0.949 ± 0.025	0.963 ± 0.02	0.961 ± 0.036	0.957 ± 0.028	0.966 ± 0.099	0.992 ± 0.025	0.899 ± 0.054	0.916 ± 0.012	2.29	2.23	2.99	3
T47D BREAST	1.08 ± 0.018	1.06 ± 0.018	1.08 ± 0.035	1.06 ± 0.019	0.492 ± 0.033	0.512 ± 0.016	0.31 ± 0.0074	0.288 ± 0.0079	1.03 ± 0.025	0.984 ± 0.038	0.964 ± 0.016	0.998 ± 0.029	1.08 ± 0.045	1.06 ± 0.072	1.03 ± 0.061	0.978 ± 0.011	2.33	2.9	3.42	3.35
SUM159 BREAST	1.11 ± 0.11	1.13 ± 0.098	1.16 ± 0.17	1.15 ± 0.17	0.6 ± 0.084	0.316 ± 0.015	0.064 ± 0.0036	0.0623 ± 0.0015	1.07 ± 0.14	1.02 ± 0.025	1.02 ± 0.041	1.03 ± 0.069	1.04 ± 0.075	0.97 ± 0.077	1.05 ± 0.084	1.008 ± 0.006	2.17	2.81	3.13	3.54
